These are literature values, as cited in patent US8513407B2, “Process for the preparation of N-acyl-(epi)K5-amine-O-sulfate-derivatives and products thus obtained” (GLYCORES 2000 S.r.l., priority 2002, dated 2013).

The data set has as its system HIV. The following applies: compared with K5-O-oversulfate and heparin.

K5-N,O-oversulfate: the anti-HIV activity result was “more active than K5-O-oversulfate and much more active than heparin”.
